The values below come from DBAASP.

A word on the MIC: it is the least concentration at which growth counts as inhibited. Read a high MIC as a less susceptible organism.

Test systems include Escherichia coli ML-35; Bacillus megaterium; Escherichia coli K91BK; Listeria monocytogenes; Escherichia coli UB1005.
Holding throughout (assay): ≥ marks a high value that may be exact or a test limit, other limits are often not marked, values filed in µg/mL are converted to µM
Test [1] has as its system Mycobacterium tuberculosis WXY.
Test [2] relates to Mycobacterium tuberculosis H37Rv.
Test [3] relates to Mycobacterium tuberculosis FYX.
In test [4] the test system is Mycobacterium tuberculosis CAS3.
The test system of test [5] is Escherichia coli ATCC 25922.
In test [6] the test system is Mycobacterium tuberculosis.
Test [7] has as its system Bacillus subtilis IFO 3134.
In test [8] the test system is Pseudomonas aeruginosa IFO 12582.
Test [9] has as its system Staphylococcus aureus IFO 12732.
In test [10] the test system is Escherichia coli IFO 12734.
The subject of test [11] is Staphylococcus aureus ATCC 25923.
The test system of test [12] is Salmonella enterica subsp. enterica serovar Typhimurium ATCC 14028.
In test [13] the test system is Pseudomonas aeruginosa ATCC 27853.
The subject of test [14] is Salmonella typhimurium KCTC 1926.
In test [15] the test system is Staphylococcus aureus CCARM 3001.
Test [16] relates to Staphylococcus aureus KCTC 1621.
Test [17] has as its system Staphylococcus epidermidis KCTC 1917.
The subject of test [18] is Bacillus subtilis KCTC 3068.
Test [19] concerns Pseudomonas aeruginosa CCARM 2095.
The subject of test [20] is Pseudomonas aeruginosa CCARM 2109.
Test [21] deals with Pseudomonas aeruginosa KCTC 1637.
Test [22] concerns Staphylococcus aureus CCARM 3543.
The test system of test [23] is Escherichia coli KCTC 1682.
Test [24] relates to Staphylococcus aureus CCARM 3090.
Test [25] concerns Enterococcus faecium ATCC 51559.
Test [26] relates to Staphylococcus aureus CCARM 3095.
Test [27] deals with Burkholderia thailandensis.
Test [28] relates to Bacillus anthracis Sterne 34F2.
Test [29] has as its system Bacillus subtilis var. niger ATCC 9372.
For test [30], the system named is Enterococcus faecalis ATCC 29212.
The test system of test [31] is Salmonella enterica subsp. enterica serovar Typhimurium ATCC 14028s.
The test system of test [32] is Staphylococcus epidermidis.
For test [33], the system named is Pseudomonas aeruginosa K799.

The structures appear in SMILES notation. ≈ marks a conversion by molar mass, not a printed value. Where “and” joins values, the source holds several entries; their conditions need not be identical. Equal entries are not always repeated. Bounds are passed on as bounds.

In the case of `CC(C)C[C@H](NC(=O)[C@H](CCCCN)NC(=O)[C@H](CCCCN)NC(=O)[C@H](CO)NC(=O)[C@H](Cc1ccccc1)NC(=O)[C@H](CCCCN)NC(=O)CNC(=O)[C@@H]1CCCN1C(=O)CNC(=O)[C@H](CCCCN)NC(=O)[C@H](CC(C)C)NC(=O)CNC(=O)[C@H](CCCCN)NC(=O)[C@H](CC(C)C)NC(=O)CNC(=O)[C@H](Cc1c[nH]c2ccccc12)NC(=O)[C@@H](N)Cc1ccccc1)C(=O)O` [FWGLKGLKGPGKFSKKL], the minimum inhibitory concentration (MIC) is no less than 39.7 µM in test [1]; 11.6 µM and 19.8 µM in test [2]; 19.8 µM (≈ 37.5 µg/mL) in test [3]; no less than 39.7 µM in test [4]; greater than 25 µM in test [5]; 14.8 µM (≈ 28 µg/mL) in [6].

For `CC[C@H](C)[C@H](NC(=O)[C@H](C)NC(=O)[C@@H]1CCCN1C(=O)[C@@H](NC(=O)[C@@H](NC(=O)[C@H](Cc1cnc[nH]1)NC(=O)[C@H](C)NC(=O)[C@H](C)NC(=O)[C@@H](NC(=O)[C@H](CCCCN)NC(=O)[C@H](C)NC(=O)[C@H](CC(C)C)NC(=O)[C@@H](NC(=O)CNC(=O)[C@H](Cc1ccccc1)NC(=O)CN)C(C)C)C(C)C)C(C)C)C(C)C)C(=O)N[C@@H](C)C(=O)N[C@@H](CCC(=O)O)C(=O)N[C@@H](Cc1cnc[nH]1)C(=O)N[C@@H](Cc1ccccc1)C(N)=O` [GFGVLAKVAAHVVPAIAEHF], the MIC in test [7], in test [8], in test [9] and in test [10] was no less than 64 µM throughout.

On to `CC[C@H](C)[C@H](NC(=O)[C@H](C)NC(=O)[C@@H]1CCCN1C(=O)[C@@H](NC(=O)[C@@H](NC(=O)[C@H](Cc1cnc[nH]1)NC(=O)[C@H](C)NC(=O)[C@H](C)NC(=O)[C@@H](NC(=O)[C@H](CCCCN)NC(=O)[C@H](C)NC(=O)[C@H](CC(C)C)NC(=O)[C@@H](NC(=O)CNC(=O)[C@H](Cc1ccccc1)NC(=O)[C@H](CC(C)C)NC(=O)CN)C(C)C)C(C)C)C(C)C)C(C)C)C(=O)N[C@@H](C)C(=O)N[C@@H](CCC(=O)O)C(=O)N[C@@H](Cc1cnc[nH]1)C(N)=O` [GLFGVLAKVAAHVVPAIAEH], for which the MIC in test [7], in test [8], in test [9] and in [10] was no less than 64 µM throughout.

With `CC[C@H](C)[C@H](NC(=O)[C@H](CCCCN)NC(=O)[C@H](CCCCN)NC(=O)[C@H](CC(C)C)NC(=O)[C@H](C)NC(=O)[C@H](CCC(=O)O)NC(=O)[C@H](CCCCN)NC(=O)[C@@H](NC(=O)[C@H](CCCCN)NC(=O)[C@H](CC(N)=O)NC(=O)[C@H](CCCN=C(N)N)NC(=O)[C@H](Cc1ccccc1)NC(=O)[C@H](CCCCN)NC(=O)[C@H](CCCN=C(N)N)NC(=O)[C@H](CC(C)C)NC(=O)[C@H](C)NC(=O)[C@H](CCCCN)NC(=O)[C@H](CCCN=C(N)N)NC(=O)[C@H](CC(C)C)NC(=O)CN)[C@@H](C)CC)C(=O)O` [GLRKALRKFRNKIKEALKKI], the MIC in [11] is 2 µM (≈ 4.82 µg/mL); against Escherichia coli ML-35, 0.5 µM (≈ 1.21 µg/mL); in the test with Bacillus megaterium, 2 µM (≈ 4.82 µg/mL); in [12] it was 0.5 µM (≈ 1.21 µg/mL); in [13], 2 µM (≈ 4.82 µg/mL); in test [5], 2 µM (≈ 4.82 µg/mL).

Consider `CC(C)C[C@H](NC(=O)[C@H](CC(C)C)NC(=O)[C@H](Cc1c[nH]c2ccccc12)NC(=O)[C@H](CCCCN)NC(=O)[C@H](CC(C)C)NC(=O)[C@H](Cc1c[nH]c2ccccc12)NC(=O)[C@H](CC(C)C)NC(=O)[C@H](CCCCN)NC(=O)[C@H](Cc1c[nH]c2ccccc12)NC(=O)[C@H](CC(C)C)NC(=O)[C@@H](N)CCCCN)C(N)=O` [KLWKLWLKWLL], for which the MIC is 4 µM (≈ 6.1 µg/mL) in [14]; 4 µM (≈ 6.1 µg/mL) in [15]; 4 µM (≈ 6.1 µg/mL) in test [16]; 8 µM (≈ 12.2 µg/mL) in test [17]; 8 µM (≈ 12.2 µg/mL) in test [18]; 8 µM (≈ 12.2 µg/mL) in test [19]. The MIC in test [20] was determined as 16 µM (≈ 24.4 µg/mL); in test [21] it was 8 µM (≈ 12.2 µg/mL); in test [22], 4 µM (≈ 6.1 µg/mL); in [23], 8 µM (≈ 12.2 µg/mL).

With `CC[C@H](C)[C@H](NC(=O)[C@H](CC(C)C)NC(=O)[C@H](CCCCN)NC(=O)[C@@H](NC(=O)[C@@H](NC(=O)[C@H](CCCN=C(N)N)NC(=O)[C@@H](N)CCCCN)[C@@H](C)CC)C(C)C)C(=O)N[C@@H](CCCCN)C(=O)N[C@@H](CCCCN)C(=O)N[C@@H](Cc1c[nH]c2ccccc12)C(=O)N[C@@H](CC(C)C)C(=O)N[C@@H](CCCN=C(N)N)C(N)=O` [KRIVKLIKKWLR], the minimum inhibitory concentration (MIC) in test [18] is 8 µM and 4 µM; in test [24] it was no less than 64 µM; in test [25], no less than 64 µM; in [19] it was 4 µM (≈ 6.32 µg/mL); in test [26] it was no less than 64 µM; in test [20], no less than 64 µM. Besides, the MIC in [21] is 4 µM and 8 µM.

Consider `CC[C@H](C)[C@H](NC(=O)[C@H](CCCCN)NC(=O)[C@H](CCCN=C(N)N)NC(=O)CNC(=O)[C@H](CC(C)C)NC(=O)[C@H](CCCN=C(N)N)NC(=O)[C@H](CCCN=C(N)N)NC(=O)[C@H](CC(C)C)NC(=O)CNC(=O)[C@H](CCCN=C(N)N)NC(C)=O)C(=O)N[C@@H](C)C(=O)N[C@@H](Cc1cnc[nH]1)C(=O)NCC(=O)N[C@H](C(=O)N[C@@H](CCCCN)C(=O)N[C@@H](CCCCN)C(=O)N[C@@H](Cc1ccc(O)cc1)C(=O)NCC(=O)N1CCC[C@H]1C(=O)N[C@H](C(=O)N[C@H](C(=O)N[C@@H](CC(C)C)C(=O)N[C@@H](CCCN=C(N)N)C(=O)N[C@H](C(=O)N[C@H](C(=O)N[C@@H](CCCN=C(N)N)C(=O)N[C@H](C(=O)N[C@@H](C)C(=O)N[C@H](C(N)=O)[C@@H](C)O)[C@@H](C)O)[C@@H](C)CC)[C@@H](C)CC)C(C)C)[C@@H](C)O)C(C)C` [RGLRRLGRKIAHGVKKYGPTVLRIIRTAT], for which the MIC was no less than 36.1 µM in the test on Escherichia coli K91BK, no less than 100 µM in test [27], 2.51 µM (≈ 8.36 µg/mL) in [28] and 3.13 µM (≈ 10.4 µg/mL) in test [29].

Turning to `CC[C@H](C)[C@@H]1NC(=O)[C@H](C(C)C)NC(=O)[C@H](C(C)C)NC(=O)[C@H]([C@@H](C)CC)NC(=O)[C@@H]2CCCN2C(=O)[C@@H](NC(=O)[C@H](CCCN=C(N)N)NC(=O)[C@@H](N)CCCN=C(N)N)CSSC[C@@H](C(=O)N[C@@H](CCCN=C(N)N)C(=O)O)NC(=O)[C@H](C(C)C)NC(=O)[C@H](CCCN=C(N)N)NC1=O` [RRCPIVVIRVCR], the MIC in [11] was 21.8 µM (≈ 32 µg/mL); in [30] it was greater than 21.8 µM; in [31], 10.9 µM (≈ 16 µg/mL); against Listeria monocytogenes, 10.9 µM (≈ 16 µg/mL); against Escherichia coli UB1005 it was 2.72 µM (≈ 3.99 µg/mL); in test [32], 21.8 µM (≈ 32 µg/mL). In test [33], this compound returned an MIC of 21.8 µM (≈ 32 µg/mL).
